In US11091478B2 (Fochon Pharmaceuticals, Ltd., priority 2017, dated 2021):

What was measured:
RS4;11 cells = assay: Cell proliferation assay (MTS), RS4;11 cells, 72 h; format: cell-based; details: Homo sapiens, RS4-11, 72 h
In short: (§1)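 Treatment lasts 72 h for RS4;11 and 120 h for DOHH2 cells seeded at 5000 per well in serum-containing RPMI-1640. A 2 h MTS step, halted with 10% SDS, precedes dual-wavelength absorbance reading and IC50 fitting.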

DOHH2 cells = assay: Cell proliferation assay (MTS), DOHH2 cells, 120 h; format: cell-based; details: Homo sapiens, DOHH-2, 120 h
In short: as §1

## CC1(C)CCC(CN2CCN(c3ccc(C(=O)NS(=O)(=O)c4cc5c(c([N+](=O)[O-])c4)N[C@H](CCNS(C)(=O)=O)CO5)c(Oc4cnc5[nH]ccc5c4)c3)CC2)=C(c2ccc(Cl)cc2)C1 [Example 2-68, (R)-2-((1H-pyrrolo[2,3-b]pyridin-5-yl)oxy)-4-(4-((4′-chloro-5,5-dimethyl-3,4,5,6-tetra-hydro-[1,1′-biphenyl]-2-yl)methyl)piperazin-1-yl)-N-((3-(2-(methysulfonamido)ethyl)-5-nitro-3,4-dihydro-2H-benzo[b][1,4]oxa-zin-7-yl)sulfonyl)benzamide]
RS4;11 cells
  IC50: 0.026 µM
DOHH2 cells
  IC50: 0.083 µM

## CC1(C)CCC(CN2CCN(c3ccc(C(=O)NS(=O)(=O)c4cc5c(c([N+](=O)[O-])c4)N[C@H](CN=S(C)(C)=O)CO5)c(Oc4cnc5[nH]ccc5c4)c3)CC2)=C(c2ccc(Cl)cc2)C1 [Example 2-70, (R)-2-((1H-pyrrolo[2,3-b]pyridin-5-yl)oxy)-4-(4-((4′-chloro-5,5-dimethyl-3,4,5,6-tetra-hydro-[1,1′-biphenyl]-2-yl)methyl)piperazin-1-yl)-N-((3-(((dimethyl(oxo)-λ^6-sulfanyl-idene)amino)methyl)-5-nitro-3,4-dihydro-2H-benzo[b][1,4]oxazin-7-yl)sulfonyl)benza-mide]
RS4;11 cells
  IC50: 0.005 µM
DOHH2 cells
  IC50: 0.028 µM

## CC1(C)CCC(CN2CCN(c3ccc(C(=O)NS(=O)(=O)c4cc5c(c([N+](=O)[O-])c4)N[C@H](CN=S4(=O)CCCC4)CO5)c(Oc4cnc5[nH]ccc5c4)c3)CC2)=C(c2ccc(Cl)cc2)C1 [Example 2-71, (R)-2-((1H-pyrrolo[2,3-b]pyridin-5-yl)oxy)-4-(4-((4′-chloro-5,5-dimethyl-3,4,5,6-tetra-hydro-[1,1′-biphenyl]-2-yl)methyl)piperazin-1-yl)-N-((5-nitro-3-(((1-oxidotetrahydro-1λ^6-thiophen-1-ylidene)amino)methyl)-3,4-dihydro-2H-benzo[b][1,4]oxazin-7-yl)sulfo-nyl)benzamide]
RS4;11 cells
  IC50: 0.058 µM
DOHH2 cells
  IC50: 0.043 µM

## CC1(C)CCC(CN2CCN(c3ccc(C(=O)NS(=O)(=O)c4cc5c(c([N+](=O)[O-])c4)N[C@H](CN=S4(=O)CCOCC4)CO5)c(Oc4cnc5[nH]ccc5c4)c3)CC2)=C(c2ccc(Cl)cc2)C1 [Example 2-72, (R)-2-((1H-pyrrolo[2,3-b]pyridin-5-yl)oxy)-4-(4-((4′-chloro-5,5-dimethyl-3,4,5,6-tetra-hydro-[1,1′-biphenyl]-2-yl)methyl)piperazin-1-yl)-N-((5-nitro-3-(((4-oxido-1,4λ^6-oxa-thian-4-ylidene)amino)methyl)-3,4-dihydro-2H-benzo[b][1,4]oxazin-7-yl)sulfonyl)ben-zamide]
RS4;11 cells
  IC50: 0.006 µM
DOHH2 cells
  IC50: 0.024 µM

## CC1(C)CCC(CN2CCN(c3ccc(C(=O)NS(=O)(=O)c4cc5c(c([N+](=O)[O-])c4)N[C@H](CCN=S4(=O)CCCC4)CO5)c(Oc4cnc5[nH]ccc5c4)c3)CC2)=C(c2ccc(Cl)cc2)C1 [Example 2-73, (R)-2-((1H-pyrrolo[2,3-b]pyridin-5-yl)oxy)-4-(4-((4′-chloro-5,5-dimethyl-3,4,5,6-tetra-hydro-[1,1′-biphenyl]-2-yl)methyl)piperazin-1-yl)-N-((5-nitro-3-(2-((1-oxidotetrahydro-1λ^6-thiophen-1-ylidene)amino)ethyl)-3,4-dihydro-2H-benzo[b][1,4]oxazin-7-yl)sulfonyl)benzamide]
RS4;11 cells
  IC50: 0.079 µM
DOHH2 cells
  IC50: 0.069 µM

## CC1(C)CCC(CN2CCN(c3ccc(C(=O)NS(=O)(=O)c4cc5c(c([N+](=O)[O-])c4)N[C@H](CCN=S4(=O)CCOCC4)CO5)c(Oc4cnc5[nH]ccc5c4)c3)CC2)=C(c2ccc(Cl)cc2)C1 [Example 2-74, (R)-2-((1H-pyrrolo[2,3-b]pyridin-5-yl)oxy)-4-(4-((4′-chloro-5,5-dimethyl-3,4,5,6-tetra-hydro-[1,1′-biphenyl]-2-yl)methyl)piperazin-1-yl)-N-((5-nitro-3-(2-((4-oxido-1,4λ^6-ox-athian-4-lidene)amino)ethyl)-3,4-dihydro-2H-benzo[b][1,4]oxazin-7-yl)sulfonyl)ben-zamide]
RS4;11 cells
  IC50: 0.064 µM
DOHH2 cells
  IC50: 0.108 µM

## CC1(C)CCC(CN2CCN(c3ccc(C(=O)NS(=O)(=O)c4cc5c(c([N+](=O)[O-])c4)N[C@@H](CN=S(C)(C)=O)CO5)c(Oc4cnc5[nH]ccc5c4)c3)CC2)=C(c2ccc(Cl)cc2)C1 [Example 2-75, (S)-2-((1H-pyrrolo[2,3-b]pyridin-5-yl)oxy)-4-(4-((4′-chloro-5,5-dimethyl-3,4,5,6-tetra-hydro-[1,1′-biphenyl]-2-yl)methyl)piperazin-1-yl)-N-((3-(((dimethyl(oxo)-λ^6-sulfanyl-idene)amino)methyl)-5-nitro-3,4-dihydro-2H-benzo[b][1,4]oxazin-7-yl)sulfonyl)benza-mide]
RS4;11 cells
  IC50: 0.001 µM
DOHH2 cells
  IC50: 0.064 µM

## CC1(C)CCC(CN2CCN(c3ccc(C(=O)NS(=O)(=O)c4cc5c(c([N+](=O)[O-])c4)N[C@@H](CN=S4(=O)CCOCC4)CO5)c(Oc4cnc5[nH]ccc5c4)c3)CC2)=C(c2ccc(Cl)cc2)C1 [Example 2-77, (S)-2-((1H-pyrrolo[2,3-b]pyridin-5-yl)oxy)-4-(4-((4′-chloro-5,5-dimethyl-3,4,5,6-tetra-hydro-[1,1′-biphenyl]-2-yl)methyl)piperazin-1-yl)-N-((5-nitro-3-(((4-oxido-1,4λ^6-oxa-thian-4-ylidene)amino)methyl)-3,4-dihydro-2H-benzo[b][1,4]oxazin-7-yl)sulfonyl)ben-zamide]
RS4;11 cells
  IC50: 0.05 µM
DOHH2 cells
  IC50: 0.602 µM

## CC1(C)CCC(CN2CCN(c3ccc(C(=O)NS(=O)(=O)c4cc5c(c([N+](=O)[O-])c4)N[C@@H](CCN=S4(=O)CCOCC4)CO5)c(Oc4cnc5[nH]ccc5c4)c3)CC2)=C(c2ccc(Cl)cc2)C1 [Example 2-78, (S)-2-((1H-pyrrolo[2,3-b]pyridin-5-yl)oxy)-4-(4-((4′-chloro-5,5-dimethyl-3,4,5,6-tetra-hydro-[1,1′-biphenyl]-2-yl)methyl)piperazin-1-yl)-N-((5-nitro-3-(2-((4-oxido-1,4λ^6-ox-athian-4-ylidene)amino)ethyl)-3,4-dihydro-2H-benzo[b][1,4]oxazin-7-yl)sulfonyl)ben-zamide]
RS4;11 cells
  IC50: 0.006 µM
DOHH2 cells
  IC50: 0.015 µM

## C[C@H]1CN(C[C@@H]2COc3cc(S(=O)(=O)NC(=O)c4ccc(N5CCN(CC6=C(c7ccc(Cl)cc7)CC(C)(C)CC6)CC5)cc4Oc4cnc5[nH]ccc5c4)cc([N+](=O)[O-])c3N2)CCO1 [Example 2-79, 2-((1H-pyrrolo[2,3-b]pyridin-5-yl)oxy)-4-(4-((4′-chloro-5,5-dimethyl-3,4,5,6-tetrahydro-[1,1′-biphenyl]-2-yl)methyl)piperazin-1-yl)-N-(((R)-3-(((S)-2-methylmorpholino)methyl)-5-nitro-3,4-dihydro-2H-benzo[b][1,4]oxazin-7-yl)sulfonyl)benzamide]
RS4;11 cells
  IC50: 0.007 µM
DOHH2 cells
  IC50: 0.055 µM

## C[C@H]1COCCN1C[C@@H]1COc2cc(S(=O)(=O)NC(=O)c3ccc(N4CCN(CC5=C(c6ccc(Cl)cc6)CC(C)(C)CC5)CC4)cc3Oc3cnc4[nH]ccc4c3)cc([N+](=O)[O-])c2N1 [Example 2-80, 2-((1H-pyrrolo[2,3-b]pyridin-5-yl)oxy)-4-(4-((4′-chloro-5,5-dimethyl-3,4,5,6-tetrahydro-[1,1′-biphenyl]-2-yl)methyl)piperazin-1-yl)-N-(((R)-3-(((S)-3-methylmorpholino)meth-yl)-5-nitro-3,4-dihydro-2H-benzo[b][1,4]oxazin-7-yl)sulfonyl)benzamide]
RS4;11 cells
  IC50: 0.007 µM
DOHH2 cells
  IC50: 0.049 µM

## C[C@@H]1COCCN1C[C@@H]1COc2cc(S(=O)(=O)NC(=O)c3ccc(N4CCN(CC5=C(c6ccc(Cl)cc6)CC(C)(C)CC5)CC4)cc3Oc3cnc4[nH]ccc4c3)cc([N+](=O)[O-])c2N1 [Example 2-81, 2-((1H-pyrrolo[2,3-b]pyridin-5-yl)oxy)-4-(4-((4′-chloro-5,5-dimethyl-3,4,5,6-tetra-hydro-[1,1′-biphenyl]-2-yl)methyl)piperazin-1-yl)-N-(((R)-3-(((R)-3-methylmorpholino)meth-yl)-5-nitro-3,4-dihydro-2H-benzo[b][1,4]oxazin-7-yl)sulfonyl)benzamide]
RS4;11 cells
  IC50: 0.003 µM
DOHH2 cells
  IC50: 0.014 µM

## CC1(C)CCC(CN2CCN(c3ccc(C(=O)NS(=O)(=O)c4cc5c(c([N+](=O)[O-])c4)N[C@H](CN4C[C@@H]6C[C@H]4CO6)CO5)c(Oc4cnc5[nH]ccc5c4)c3)CC2)=C(c2ccc(Cl)cc2)C1 [Example 2-82, 2-((1H-pyrrolo[2,3-b]pyridin-5-yl)oxy)-N-(((R)-3-(((1S,4S)-2-oxa-5-azabicyclo[2.2.1]heptan-5-yl)methyl)-5-nitro-3,4-dihydro-2H-benzo[b][1,4]oxazin-7-yl)sulfonyl)-4-(4-((4′-chloro-5,5-dimethyl-3,4,5,6-tetrahydro-[1,1′-biphenyl]-2-yl)methyl)piperazin-1-yl) benzamide]
RS4;11 cells
  IC50: 0.001 µM
DOHH2 cells
  IC50: 0.009 µM

## CC1(C)CCC(CN2CCN(c3ccc(C(=O)NS(=O)(=O)c4cc5c(c([N+](=O)[O-])c4)N[C@H](CN4C[C@H]6C[C@@H]4CO6)CO5)c(Oc4cnc5[nH]ccc5c4)c3)CC2)=C(c2ccc(Cl)cc2)C1 [Example 2-83, 2-((1H-pyrrolo[2,3-b]pyridin-5-yl)oxy)-N-(((R)-3-(((1R,4R)-2-oxa-5-azabicyclo[2.2.1]heptan-5-yl)methyl)-5-nitro-3,4-dihydro-2H-benzo[b][1,4]oxazin-7-yl)sulfonyl)-4-(4-((4′-chloro-5,5-dimethyl-3,4,5,6-tetrahydro-[1,1′-biphenyl]-2-yl)methyl)piperazin-1-yl) benzamide]
RS4;11 cells
  IC50: 0.001 µM
DOHH2 cells
  IC50: 0.013 µM

## CC1(C)CCC(CN2CCN(c3ccc(C(=O)NS(=O)(=O)c4cc5c(c([N+](=O)[O-])c4)N[C@H](CN4CCCCC4)CO5)c(Oc4cnc5[nH]ccc5c4)c3)CC2)=C(c2ccc(Cl)cc2)C1 [Example 2-84, (R)-2-((1H-pyrrolo[2,3-b]pyridin-5-yl)oxy)-4-(4-((4′-chloro-5,5-dimethyl-3,4,5,6-tetra-hydro-[1,1′-biphenyl]-2-yl)methyl)piperazin-1-yl)-N-((5-nitro-3-(piperidin-1-ylmethyl)-3,4-dihydro-2H-benzo[b][1,4]oxazin-7-yl)sulfonyl)benzamide]
RS4;11 cells
  IC50: 0.026 µM
DOHH2 cells
  IC50: 0.082 µM
